Target: T1, estrogen receptor α (ERα) (Homo sapiens, UniProt P03372)
T1 construct: gene ESR1; full-length human ESR1 (ERα), transiently expressed in HEK293T cells
T1 sequence (P03372 1-595): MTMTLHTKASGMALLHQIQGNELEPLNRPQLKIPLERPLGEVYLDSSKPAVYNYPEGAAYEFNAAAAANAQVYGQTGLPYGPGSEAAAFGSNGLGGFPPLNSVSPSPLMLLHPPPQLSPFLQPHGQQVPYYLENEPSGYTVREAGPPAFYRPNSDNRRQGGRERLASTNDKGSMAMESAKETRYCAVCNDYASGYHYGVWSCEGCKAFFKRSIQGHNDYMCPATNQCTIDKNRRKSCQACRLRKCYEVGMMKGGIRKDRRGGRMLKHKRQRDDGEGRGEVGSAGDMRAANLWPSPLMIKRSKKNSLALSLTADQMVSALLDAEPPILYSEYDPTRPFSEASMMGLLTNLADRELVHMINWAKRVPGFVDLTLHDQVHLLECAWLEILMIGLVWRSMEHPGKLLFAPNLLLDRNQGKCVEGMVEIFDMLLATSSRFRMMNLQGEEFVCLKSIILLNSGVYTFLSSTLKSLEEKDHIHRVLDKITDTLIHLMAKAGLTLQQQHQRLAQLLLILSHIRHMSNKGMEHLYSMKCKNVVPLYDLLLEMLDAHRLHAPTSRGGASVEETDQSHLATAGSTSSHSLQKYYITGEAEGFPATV
Test: radioligand saturation binding with Scatchard analysis in ERα-transfected HEK293T cells
Type: cell-based

Kd: 94 nM
SMILES: C[C@]12CC[C@@H]3c4ccc(O)cc4CC[C@H]3[C@@H]1C[C@@H](F)[C@@H]2O [[18F]FES, 16α-[18F]fluoro-17β-estradiol]
